Assay results reported in PubChem BioAssay AID1919000 (Molecular Pharmacology Branch, DTP, NCI, 2023).
Where “and” joins values, the source holds several entries; their conditions need not be identical. Equal values may be shown once.

Test system: 653999-131-R-J2-PDC complex spheroids, growth % test/control
Test: Anticancer human tumor 653999-131-R-J2-PDC patient-derived lung adenocarcinoma cell line growth inhibition [AhR]
Conditions: for viability, T/C: stronger effect = lower value
Excerpt: Multicellular complex tumor spheroid response to aryl hydrocarbon receptor antagonists in combination with a variety of drugs and investigational agents in selected tumor cell lines
The current study was undertaken to assess response to aryl hydrocarbon receptor antagonists in combination with standard-of-care drugs and investigational agents in solid tumor complex spheroid models. Complex spheroids include a stromal component modeled by human endothelial cells (HUVEC) and fibroblasts modeled by human mesenchymal stem cells (MSCs). The concentration ranges selected for each drug and investigational agent were based upon clinically achievable concentrations if the clinical Cmax of the agent was known.
Compounds. The drugs and investigational agents: BAY 2416964 (NSC825713), GNF351 (NSC835774), CH-223191 (NSC835775), CPI-455 (NSC825282), aza-TdCyd (NSC777586), decitabine (NSC127716), belinostat (NSC758774), entinostat (NSC756642), pevonedistat (NSC761192), tazemetostat (NSC777109), talazoparib (NSC765396), olaparib (NSC753686), selinexor (NSC780203), nedisertib (M3814, NSC802822), bortezomib (NSC756655), venetoclax (NSC766270), doxorubicin (NSC123127), elimusertib (BAY189344, NSC800525), ceralasertib (AZD6738, NSC777638), TAK-243 (NSC785004), alisertib (NSC759677), etoposide (NSC141540), topotecan (NSC609699), eribulin (NSC707389), gemcitabine (NSC613327), carboplatin (NSC241240), cisplatin (NSC119875), and SN-38 (NSC673596) were obtained from the National Cancer Institute (NCI) Developmental Therapeutics Program Chemical Repository (32). The FDA-approved anticancer drug set is available from the Developmental Therapeutics Program at https://dtp.cancer.gov/organization/dscb/obtaining/available plates.htm. […] The stock solutions were prepared in dimethyl sulfoxide (DMSO, Sigma-Aldrich, St. Louis, MO, cat. D2650), except for the platinum compounds which were prepared in saline (Quality Biological, Gaithersburg, MD, cat. 114-055-101), at 800-fold the tested concentration and stored at -70 degrees C prior to their use. All drugs and investigational agents were tested over a range starting from a high concentration at or near the clinical Cmax and decreasing in half-log increments. If the clinical Cmax for an agent had not been determined, the highest concentration tested was 10 microM (Table 1).
Cell Culture. All cells were maintained in an incubator at 37 degrees C and 5% CO2 with 95% humidity. The PDC lines were cultured according to standard operating procedures established by the NCI PDMR (https://pdmr.cancer.gov). Briefly, all PDCs were thawed and cultured in Matrigel-coated flasks prepared with a working solution of 1X Ham's F-12 nutrient mix, without supplementation (Invitrogen, Waltham, MA, cat. 11765054), 100 U/mL penicillin-streptomycin (Invitrogen, cat. 15140122), and 2.5% Matrigel (Corning Inc., Corning, NY, cat. 354248) for the first three passages. All PDCs were cultured in complete DMEM/F-12 media containing advanced DMEM/F-12 (Invitrogen, cat. 12634028), 4.9% defined fetal bovine serum, heat inactivated (HyClone Laboratories Inc., Logan, UT, cat. SH30070.03HI), 389 ng/mL hydrocortisone (Sigma-Aldrich, cat. H4001), 9.7 ng/mL human EGF recombinant protein (Invitrogen, cat. PHG0313), 23.4 microg/mL adenine (Sigma-Aldrich, cat. A2786), 97.3 U/mL penicillin-streptomycin (Invitrogen, cat. 15140122), 1.9 mM L-glutamine (Invitrogen, cat. 25030081), and 9.7 microM Y-27632 dihydrochloride (Tocris Bioscience, Bristol, United Kingdom, cat. 1254). The PDCs were cultured in complete DMEM/F12 media without 10 microM Y-27632 dihydrochloride for at least two passages prior to the screen. The established cell lines NCI-H1341 and […] were cultured in DMEM/F-12, HEPES (Invitrogen, cat. 11330032), 5% defined fetal bovine serum (HyClone Laboratories Inc., cat. SH30070.03), ITS premix universal culture supplement [insulin (5 microg/mL), transferrin (5 microg/mL), and selenious acid (5 ng/mL)] […]

[1] = curve of first compound, second compound 0.1 µM
[2] = curve of first compound, second compound 0.316 µM
[3] = curve of first compound, second compound 1 µM
[4] = curve of first compound, second compound 3.16 µM
[5] = curve of first compound, second compound 10 µM
[6] = second compound 0.1 µM, first compound 0.000949 µM
[7] = second compound 0.1 µM, first compound 0.003 µM
[8] = second compound 0.1 µM, first compound 0.00949 µM
[9] = second compound 0.1 µM, first compound 0.03 µM
[10] = second compound 0.1 µM, first compound 0.0949 µM
[11] = second compound 0.1 µM, first compound 0.3 µM
[12] = second compound 0.316 µM, first compound 0.000949 µM
[13] = second compound 0.316 µM, first compound 0.003 µM
[14] = second compound 0.316 µM, first compound 0.00949 µM
[15] = second compound 0.316 µM, first compound 0.03 µM
[16] = second compound 0.316 µM, first compound 0.0949 µM
[17] = second compound 0.316 µM, first compound 0.3 µM
[18] = second compound 1 µM, first compound 0.000949 µM
[19] = second compound 1 µM, first compound 0.003 µM
[20] = second compound 1 µM, first compound 0.00949 µM
[21] = second compound 1 µM, first compound 0.03 µM
[22] = second compound 1 µM, first compound 0.0949 µM
[23] = second compound 1 µM, first compound 0.3 µM
[24] = second compound 3.16 µM, first compound 0.000949 µM
[25] = second compound 3.16 µM, first compound 0.003 µM
[26] = second compound 3.16 µM, first compound 0.00949 µM
[27] = second compound 3.16 µM, first compound 0.03 µM
[28] = second compound 3.16 µM, first compound 0.0949 µM
[29] = second compound 3.16 µM, first compound 0.3 µM
[30] = second compound 10 µM, first compound 0.000949 µM
[31] = second compound 10 µM, first compound 0.003 µM
[32] = second compound 10 µM, first compound 0.00949 µM
[33] = second compound 10 µM, first compound 0.03 µM
[34] = second compound 10 µM, first compound 0.0949 µM
[35] = second compound 10 µM, first compound 0.3 µM
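Further: spheroids exposed to agents for seven days.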

Question: Which results are given for `CC1COCCN1c1cc(-c2ccnn2C)c2ccnc(-c3ccn[nH]3)c2n1` (configuration not stated) + Cc1ccccc1N=Nc1ccc(NC(=O)c2ccnn2C)c(C)c1?
Answer: IC50 [1]: 168 nM; IC50 [2]: 157 nM; IC50 [3]: 193 nM; IC50 [4]: 138 nM; IC50 [5]: 233 nM; viability, T/C (second compound 0.1 µM, first compound 0.00316 µM): 98.7%; viability, T/C (second compound 0.1 µM, first compound 0.01 µM): 101%; viability, T/C (second compound 0.1 µM, first compound 0.0316 µM): 82%; viability, T/C (second compound 0.1 µM, first compound 0.1 µM): 59.7%; viability, T/C (second compound 0.1 µM, first compound 0.316 µM): 38.7%; viability, T/C (second compound 0.1 µM, first compound 1 µM): 34.5%; viability, T/C (second compound 0.316 µM, first compound 0.00316 µM): 103%; viability, T/C (second compound 0.316 µM, first compound 0.01 µM): 103%; viability, T/C (second compound 0.316 µM, first compound 0.0316 µM): 78.4%; viability, T/C (second compound 0.316 µM, first compound 0.1 µM): 60.3%; viability, T/C (second compound 0.316 µM, first compound 0.316 µM): 36.6%; viability, T/C (second compound 0.316 µM, first compound 1 µM): 31.8%; viability, T/C (second compound 1 µM, first compound 0.00316 µM): 102%; viability, T/C (second compound 1 µM, first compound 0.01 µM): 100%; viability, T/C (second compound 1 µM, first compound 0.0316 µM): 76.9%; viability, T/C (second compound 1 µM, first compound 0.1 µM): 65.1%; viability, T/C (second compound 1 µM, first compound 0.316 µM): 37.9%; viability, T/C (second compound 1 µM, first compound 1 µM): 36.3%; viability, T/C (second compound 3.16 µM, first compound 0.00316 µM): 103%; viability, T/C (second compound 3.16 µM, first compound 0.01 µM): 107%; viability, T/C (second compound 3.16 µM, first compound 0.0316 µM): 84.5%; viability, T/C (second compound 3.16 µM, first compound 0.1 µM): 54.9%; viability, T/C (second compound 3.16 µM, first compound 0.316 µM): 39.8%; viability, T/C (second compound 3.16 µM, first compound 1 µM): 35.1%; viability, T/C (second compound 10 µM, first compound 0.00316 µM): 89.7%; viability, T/C (second compound 10 µM, first compound 0.01 µM): 89.3%; viability, T/C (second compound 10 µM, first compound 0.0316 µM): 76.3%; viability, T/C (second compound 10 µM, first compound 0.1 µM): 57.6%; viability, T/C (second compound 10 µM, first compound 0.316 µM): 49.8%; viability, T/C (second compound 10 µM, first compound 1 µM): 39.1%

Question: What does the source list for `CCc1c2c(nc3ccc(O)cc13)-c1cc3c(c(=O)n1C2)COC(=O)[C@]3(O)CC` + CC(CO)NC(=O)c1cc(-c2ccc(Cl)cc2)nn(-c2cnn(C)c2)c1=O?
Answer: IC50 [1]: 7.43 nM; IC50 [2]: 5.82 nM; IC50 [3]: 6.93 nM; IC50 [4]: 5.13 nM; IC50 [5]: 4.97 nM; viability, T/C [6]: 68%; viability, T/C [7]: 59%; viability, T/C [8]: 48.4%; viability, T/C [9]: 32%; viability, T/C [10]: 21.5%; viability, T/C [11]: 12.7%; viability, T/C [12]: 64.1%; viability, T/C [13]: 58.8%; viability, T/C [14]: 42.3%; viability, T/C [15]: 34%; viability, T/C [16]: 19.4%; viability, T/C [17]: 11.4%; viability, T/C [18]: 67%; viability, T/C [19]: 60%; viability, T/C [20]: 45.4%; viability, T/C [21]: 33.7%; viability, T/C [22]: 21.2%; viability, T/C [23]: 13.8%; viability, T/C [24]: 50.2%; viability, T/C [25]: 50.8%; viability, T/C [26]: 49.9%; viability, T/C [27]: 29.1%; viability, T/C [28]: 22.1%; viability, T/C [29]: 15.8%; viability, T/C [30]: 63.2%; viability, T/C [31]: 55.8%; viability, T/C [32]: 42.9%; viability, T/C [33]: 30%; viability, T/C [34]: 21.8%; viability, T/C [35]: 16.1%

Question: `CCc1c2c(nc3ccc(O)cc13)-c1cc3c(c(=O)n1C2)COC(=O)[C@]3(O)CC` + Cc1cncc(-c2nc(NCCc3c[nH]c4ccccc34)c3ncn(C(C)C)c3n2)c1 was tested. Which IC50 [1] did it give?
Answer: 4.27 nM

Question: What about the IC50 [2] of the same compound?
Answer: 3.22 nM

Question: What about the IC50 [3] of the same compound?
Answer: 4.17 nM

Question: What about the IC50 [4] of the same compound?
Answer: 5.21 nM

Question: And the IC50 [5]?
Answer: < 0.949 nM

Question: What about the viability, T/C [6] of the same compound?
Answer: 62.3%

Question: And the viability, T/C [7]?
Answer: 56.1%

Question: What about the viability, T/C [8] of the same compound?
Answer: 38.4%

Question: What about the viability, T/C [9] of the same compound?
Answer: 27.4%

Question: And the viability, T/C [10]?
Answer: 19.4%

Question: And the viability, T/C [11]?
Answer: 13.7%

Question: What about the viability, T/C [12] of the same compound?
Answer: 59.1%

Question: What about the viability, T/C [13] of the same compound?
Answer: 50.6%

Question: What about the viability, T/C [14] of the same compound?
Answer: 39.1%

Question: And the viability, T/C [15]?
Answer: 26.2%

Question: And the viability, T/C [16]?
Answer: 18.3%

Question: What about the viability, T/C [17] of the same compound?
Answer: 13%

Question: And the viability, T/C [18]?
Answer: 67.2%

Question: What about the viability, T/C [19] of the same compound?
Answer: 55%

Question: And the viability, T/C [20]?
Answer: 38.5%

Question: And the viability, T/C [21]?
Answer: 28.1%

Question: And the viability, T/C [22]?
Answer: 19.4%

Question: What about the viability, T/C [23] of the same compound?
Answer: 13.6%

Question: And the viability, T/C [24]?
Answer: 58%

Question: And the viability, T/C [25]?
Answer: 58.1%

Question: What about the viability, T/C [26] of the same compound?
Answer: 42.6%

Question: And the viability, T/C [27]?
Answer: 28%

Question: And the viability, T/C [28]?
Answer: 18.8%

Question: And the viability, T/C [29]?
Answer: 12.3%

Question: What about the viability, T/C [30] of the same compound?
Answer: 36.4%

Question: And the viability, T/C [31]?
Answer: 32.3%

Question: What about the viability, T/C [32] of the same compound?
Answer: 25.5%

Question: And the viability, T/C [33]?
Answer: 16%

Question: What about the viability, T/C [34] of the same compound?
Answer: 11.2%

Question: And the viability, T/C [35]?
Answer: 8.25%

Question: With `O=C(c1cc(Cc2n[nH]c(=O)c3ccccc23)ccc1F)N1CCN(C(=O)C2CC2)CC1` as the compound, how does the viability, T/C (compound 0.0316 µM) read?
Answer: 107% and 92.7% and 109%

Question: What about the viability, T/C (compound 0.1 µM) of the same compound?
Answer: 102% and 99.8% and 95.5%

Question: And the viability, T/C (compound 0.316 µM)?
Answer: 96.7% and 98.2% and 106%

Question: And the viability, T/C (compound 1 µM)?
Answer: 98.8% and 93.7% and 86.1%

Question: And the viability, T/C (compound 3.16 µM)?
Answer: 97.4% and 95.6% and 95.2%

Question: And the viability, T/C (compound 10 µM)?
Answer: 86% and 84.6% and 77.5%

Question: What about the IC50 (curve of compound) of the same compound?
Answer: > 10000 nM
